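1) Cells in 96-well plates. 2) Compound, 48 h, 5 concentrations. 3) Linear interpolation between surrounding doses. 4) Unreached endpoint = highest concentration. GI50: concentration for 50% inhibition of growth.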 Active and inactive are the calls of the source. Rule as the data show it: active = GI50 up to about 1.1 µM and inactive = higher.
Experiments:
Test in all cases: NCI-60 cell line screen, 48 h
A549 = test system: A549
HT-29 = test system: HT-29
OVCAR-5 = test system: OVCAR-5
NCI-H522 = test system: NCI-H522
HOP-62 = test system: HOP-62
SF-268 = test system: SF-268
HL-60 = test system: HL-60
RXF 393 = test system: RXF 393
UACC-62 = test system: UACC-62
EKVX = test system: EKVX
A498 = test system: A498
UACC-257 = test system: UACC-257
COLO 205 = test system: COLO 205
KM-20L2 = test system: KM-20L2
HCT-116 = test system: HCT-116
HCT-15 = test system: HCT-15
Hs-578T = test system: Hs-578T
MDA-N = test system: MDA-N
PC-3 = test system: PC-3
BT-549 = test system: BT-549

| SMILES | GI50 (A549) | GI50 (HT-29) | GI50 (OVCAR-5) | GI50 (NCI-H522) | GI50 (HOP-62) | GI50 (SF-268) | GI50 (HL-60) | GI50 (RXF 393) | GI50 (UACC-62) | GI50 (EKVX) | GI50 (A498) | GI50 (UACC-257) | GI50 (COLO 205) | GI50 (KM-20L2) | GI50 (HCT-116) | GI50 (HCT-15) [µM] | GI50 (Hs-578T) | GI50 (MDA-N) | GI50 (PC-3) | GI50 (BT-549) |
| --- | --- | --- | --- | --- | --- | --- | --- | --- | --- | --- | --- | --- | --- | --- | --- | --- | --- | --- | --- | --- |
| Cc1cc(C)nc(NS(=O)(=O)c2ccc(Nc3c4ccccc4nc4c(C(=O)Nc5ccc(S(=O)(=O)N=C(N)N)cc5)ccc(Cl)c34)cc2)n1 | > 100 µM (inactive) | 36.3 µM (inactive) | 41.2 µM (inactive) | 15.8 µM (inactive) | 23.2 µM (inactive) | 27.9 µM (inactive) | 24.1 µM (inactive) | 18.2 µM (inactive) | 19.3 µM (inactive) | 56.4 µM (inactive) | 34.6 µM (inactive) | 64.3 µM (inactive) | 55 µM (inactive) | 35.6 µM (inactive) | 21.9 µM (inactive) | – | – | – | – | – |
| CC(C)(C)N/N=N/c1cn(C2OC(CO)C(O)C2O)c(=O)[nH]c1=O (stereo not drawn) | > 100 µM (inactive) | > 100 µM (inactive) | > 100 µM (inactive) | > 100 µM (inactive) | > 100 µM (inactive) | > 100 µM (inactive) | 50.9 µM (inactive) | 61.4 µM (inactive) | > 100 µM (inactive) | > 100 µM (inactive) | > 100 µM (inactive) | > 100 µM (inactive) | 37.2 µM (inactive) | > 100 µM (inactive) | 40.7 µM (inactive) | 43.5 | – | – | – | – |
| CC1=NN(C(=O)c2ccc(Cl)cc2)C(=O)/C1=C/c1ccco1 | > 100 µM (inactive) | > 100 µM (inactive) | > 100 µM (inactive) | > 100 µM (inactive) | > 100 µM (inactive) | > 100 µM (inactive) | > 100 µM (inactive) | > 100 µM (inactive) | > 100 µM (inactive) | > 100 µM (inactive) | > 100 µM (inactive) | > 100 µM (inactive) | > 100 µM (inactive) | > 100 µM (inactive) | > 100 µM (inactive) | > 100 | – | – | – | – |
| Cc1cc(NS(=O)(=O)c2ccc(NC(=O)c3cccc4c(Nc5ccc(S(=O)(=O)Nc6cc(C)on6)cc5)c5ccccc5nc34)cc2)no1 | > 100 µM (inactive) | > 100 µM (inactive) | > 100 µM (inactive) | 20 µM (inactive) | 47.8 µM (inactive) | 34.7 µM (inactive) | 23.7 µM (inactive) | 25.8 µM (inactive) | 17.5 µM (inactive) | > 100 µM (inactive) | 68.9 µM (inactive) | > 100 µM (inactive) | 62.4 µM (inactive) | > 100 µM (inactive) | – | > 100 | – | – | – | – |
| Cc1cc2c(c3c1c1ccccc1n3C)C(=O)c1ccccc1C2=O | > 100 µM (inactive) | > 100 µM (inactive) | > 100 µM (inactive) | 75.3 µM (inactive) | > 100 µM (inactive) | > 100 µM (inactive) | 39.3 µM (inactive) | > 100 µM (inactive) | > 100 µM (inactive) | > 100 µM (inactive) | – | > 100 µM (inactive) | > 100 µM (inactive) | > 100 µM (inactive) | > 100 µM (inactive) | > 100 | – | – | – | – |
| Cn1cc(NC(=O)c2cc(NC(=O)CCCCCCCCCC(=O)Nc3cc(C(=O)Nc4cc(C(=O)NCCC(=N)N)n(C)c4)n(C)c3)cn2C)cc1C(=O)NCCC(=N)N | 18.7 µM (inactive) | 20.7 µM (inactive) | 32.7 µM (inactive) | 11 µM (inactive) | 24.5 µM (inactive) | 21.8 µM (inactive) | – | 32.1 µM (inactive) | 31.2 µM (inactive) | 28.6 µM (inactive) | – | 15.8 µM (inactive) | 21.2 µM (inactive) | 31.2 µM (inactive) | 24.5 µM (inactive) | 39.3 | – | – | – | – |
| C/C=C/C1(C)/C(=N\O)C(C)(CCC)C(=O)N1O (stereo not drawn) | > 100 µM (inactive) | > 100 µM (inactive) | > 100 µM (inactive) | > 100 µM (inactive) | > 100 µM (inactive) | – | > 100 µM (inactive) | > 100 µM (inactive) | > 100 µM (inactive) | > 100 µM (inactive) | > 100 µM (inactive) | > 100 µM (inactive) | > 100 µM (inactive) | > 100 µM (inactive) | > 100 µM (inactive) | > 100 | – | – | – | – |
| CCCCOC(=O)CNC(=O)OCCCCC#CC#CCCCCOC(=O)NCC(=O)OCCCC | > 100 µM (inactive) | > 100 µM (inactive) | > 100 µM (inactive) | 76.7 µM (inactive) | > 100 µM (inactive) | > 100 µM (inactive) | > 100 µM (inactive) | – | > 100 µM (inactive) | > 100 µM (inactive) | > 100 µM (inactive) | > 100 µM (inactive) | > 100 µM (inactive) | > 100 µM (inactive) | > 100 µM (inactive) | – | – | – | – | – |
| CC1C[C@H](OC(N)=O)C(C)CC1=O (stereo partly drawn) | > 100 µM (inactive) | > 100 µM (inactive) | > 100 µM (inactive) | – | > 100 µM (inactive) | > 100 µM (inactive) | > 100 µM (inactive) | > 100 µM (inactive) | > 100 µM (inactive) | > 100 µM (inactive) | > 100 µM (inactive) | > 100 µM (inactive) | > 100 µM (inactive) | > 100 µM (inactive) | > 100 µM (inactive) | > 100 | – | – | – | – |
| O=C1[C@@H]2C(c3ccc(Cl)cc3Cl)=NO[C@@H]2C(=O)N1c1ccc(Cc2ccc(N3C(=O)[C@H]4C(c5ccc(Cl)cc5Cl)=NO[C@H]4C3=O)cc2)cc1 | > 100 µM (inactive) | > 100 µM (inactive) | > 100 µM (inactive) | – | > 100 µM (inactive) | > 100 µM (inactive) | 11.4 µM (inactive) | 13.6 µM (inactive) | 71.6 µM (inactive) | > 100 µM (inactive) | > 100 µM (inactive) | 41.6 µM (inactive) | 50.9 µM (inactive) | > 100 µM (inactive) | – | 46.6 | – | – | – | – |
| CN1CCS(=O)(=O)NC(Cc2ccccc2)C(=O)N2CCCC2C1=O (stereo not drawn) | > 100 µM (inactive) | > 100 µM (inactive) | > 100 µM (inactive) | > 100 µM (inactive) | > 100 µM (inactive) | > 100 µM (inactive) | > 100 µM (inactive) | – | > 100 µM (inactive) | > 100 µM (inactive) | > 100 µM (inactive) | > 100 µM (inactive) | > 100 µM (inactive) | > 100 µM (inactive) | > 100 µM (inactive) | > 100 | – | – | – | – |
| S=C(Nc1ccccc1)N1N=C2c3ccccc3CC[C@H]2[C@@H]1c1ccccc1 | 4.66 µM (inactive) | 2.81 µM (inactive) | > 100 µM (inactive) | 0.581 µM (active) | 4.22 µM (inactive) | 12.9 µM (inactive) | 0.855 µM (active) | 2.12 µM (inactive) | 2.75 µM (inactive) | > 100 µM (inactive) | 11.7 µM (inactive) | 3.58 µM (inactive) | – | 3.21 µM (inactive) | > 100 µM (inactive) | 2.02 | – | – | – | – |
| COC(=O)C(CCC1(C)OCCO1)C(C)=O (stereo not drawn) | > 100 µM (inactive) | > 100 µM (inactive) | > 100 µM (inactive) | > 100 µM (inactive) | > 100 µM (inactive) | > 100 µM (inactive) | > 100 µM (inactive) | > 100 µM (inactive) | – | > 100 µM (inactive) | > 100 µM (inactive) | > 100 µM (inactive) | > 100 µM (inactive) | > 100 µM (inactive) | > 100 µM (inactive) | > 100 | – | – | – | – |
| O=C(Nc1ccc(Cl)c(Cl)c1)C(=O)C(C(=O)c1ccccc1-c1ccccc1)C1OC(=O)c2ccccc21 (stereo not drawn) | 21.3 µM (inactive) | 29.8 µM (inactive) | 18.5 µM (inactive) | 6.56 µM (inactive) | 13.1 µM (inactive) | 15.8 µM (inactive) | 10.9 µM (inactive) | 8.15 µM (inactive) | 15.8 µM (inactive) | 20.8 µM (inactive) | 22.9 µM (inactive) | 18.9 µM (inactive) | 15.6 µM (inactive) | 22.9 µM (inactive) | 10.5 µM (inactive) | – | – | – | – | – |
| CCCNCCCC(NC(C)=O)C(=O)NCc1ccccc1 (stereo not drawn) | > 100 µM (inactive) | > 100 µM (inactive) | > 100 µM (inactive) | > 100 µM (inactive) | > 100 µM (inactive) | > 100 µM (inactive) | – | > 100 µM (inactive) | > 100 µM (inactive) | > 100 µM (inactive) | > 100 µM (inactive) | > 100 µM (inactive) | > 100 µM (inactive) | > 100 µM (inactive) | > 100 µM (inactive) | > 100 | – | – | – | – |
| C#Cc1cc(CN(CC(=O)OC(C)(C)C)CC(=O)OC(C)(C)C)nc(CN(CC(=O)OC(C)(C)C)CC(=O)OC(C)(C)C)c1 | 7.85 µM (inactive) | 4.4 µM (inactive) | 21.6 µM (inactive) | 2.01 µM (inactive) | 3.92 µM (inactive) | 4.8 µM (inactive) | 2.98 µM (inactive) | 2.84 µM (inactive) | 4.26 µM (inactive) | 11.9 µM (inactive) | 17.8 µM (inactive) | 2.82 µM (inactive) | 7.36 µM (inactive) | 5.43 µM (inactive) | – | 24.6 | – | – | – | – |
| CC1=NN(c2ccccc2Cl)C2(C1)C(Cl)C(=O)N2c1nc2ccccc2s1 (stereo not drawn) | 55.7 µM (inactive) | 51.5 µM (inactive) | > 100 µM (inactive) | 17.9 µM (inactive) | 29.2 µM (inactive) | 64.9 µM (inactive) | 25.5 µM (inactive) | 39.1 µM (inactive) | 44.6 µM (inactive) | > 100 µM (inactive) | > 100 µM (inactive) | > 100 µM (inactive) | 61.1 µM (inactive) | – | 44.9 µM (inactive) | 44.3 | > 100 µM (inactive) | 62.7 µM (inactive) | > 100 µM (inactive) | 54.6 µM (inactive) |

Reference: ChEMBL document CHEMBL1201862, “PubChem BioAssay data set” (2004)
